In ChEMBL document CHEMBL1201862, “PubChem BioAssay data set” (2004):
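48-hour exposure; five concentrations; linearly interpolated endpoints. GI50: concentration for 50% inhibition of growth.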 The source made the active and inactive calls. Cut-off read from the data, not from the text of the source: active = GI50 up to about 1.1 µM and inactive = higher.

Columns and labels:
Test in all cases: inhibition of tumour cell growth, NCI panel, 48 h
DLD-1 = test system: DLD-1
HOP-18 = test system: HOP-18
LXFL 529 = test system: LXFL 529
M19-MEL = test system: M19-MEL
RXF 631 = test system: RXF 631
SNB-78 = test system: SNB-78
XF498 = test system: XF498
DMS-114 = test system: DMS-114
DMS-273 = test system: DMS-273

| SMILES | GI50 (DLD-1) | GI50 (HOP-18) | GI50 (LXFL 529) | GI50 (M19-MEL) | GI50 (RXF 631) | GI50 (SNB-78) | GI50 (XF498) | GI50 (DMS-114) | GI50 (DMS-273) |
| --- | --- | --- | --- | --- | --- | --- | --- | --- | --- |
| CCOC(=O)/C(C#N)=C1\N[C@H](C(=O)OCC)CO1 | > 100 µM (inactive) | > 100 µM (inactive) | > 100 µM (inactive) | > 100 µM (inactive) | > 100 µM (inactive) | > 100 µM (inactive) | 31.9 µM (inactive) |  |  |
| COc1ccc2nc3ccccc3c(NCCN(C)CCCl)c2c1 | 0.524 µM (active) | 2.06 µM (inactive) | 0.393 µM (active) | 0.906 µM (active) |  | 0.902 µM (active) | 0.514 µM (active) | 0.752 µM (active) | 0.412 µM (active) |
| Cc1nn2c(nc1=O)sc1ccc3ccccc3c12 | > 100 µM (inactive) | > 100 µM (inactive) | > 100 µM (inactive) | > 100 µM (inactive) |  | > 100 µM (inactive) | > 100 µM (inactive) | > 100 µM (inactive) | > 100 µM (inactive) |
| O=CCCCC(Sc1ccccc1)Sc1ccccc1 | 15.3 µM (inactive) |  | 13 µM (inactive) | 18.1 µM (inactive) | 20.6 µM (inactive) | 15.3 µM (inactive) | 19 µM (inactive) | 23.9 µM (inactive) | 17.3 µM (inactive) |
| CCOc1ccc(/N=C/c2ccnc3ccccc23)cc1 | 4.57 µM (inactive) | > 100 µM (inactive) | 16.2 µM (inactive) | > 71.1 µM (inactive) |  | > 60.1 µM (inactive) | > 100 µM (inactive) | 17.3 µM (inactive) | 28.1 µM (inactive) |
| CCOC(=O)/N=c1\ss/c(=N\C(=S)N(C)C)n1-c1ccccc1 | > 10 µM (inactive) | > 10 µM (inactive) | 4.44 µM (inactive) | 0.834 µM (active) |  | 36.3 µM (inactive) | 28.8 µM (inactive) | 0.453 µM (active) | 2.15 µM (inactive) |
| CC1=C(/C=C/C(C)=C/C=C/C(C)=C/C=C/C=C(C)/C=C/C=C(C)/C=C/C2=C(C)C(=O)C(O)CC2(C)C)C(C)(C)CC(O)C1=O (configuration not stated) | > 100 µM (inactive) | > 100 µM (inactive) |  | > 100 µM (inactive) | > 100 µM (inactive) | > 100 µM (inactive) |  | > 100 µM (inactive) | > 100 µM (inactive) |
| CN(C)C(=N/O)/C(=N\O)N(C)C | > 100 µM (inactive) | > 100 µM (inactive) | > 100 µM (inactive) | > 100 µM (inactive) | > 100 µM (inactive) | > 100 µM (inactive) | > 100 µM (inactive) | > 100 µM (inactive) | > 100 µM (inactive) |
| C=C1COC(O)(C2OCOC(C3CC(=O)NC(=O)C3)C2O)C1C (configuration not stated) | 0.00416 µM (active) | 0.00357 µM (active) | 0.00222 µM (active) | 0.00156 µM (active) | 0.0037 µM (active) | 0.00718 µM (active) | < 0.01 µM (active) | 0.00319 µM (active) | 0.00417 µM (active) |
| c1cc(-c2cn[nH]c2)cc(-c2cn[nH]c2)c1 | 33.7 µM (inactive) |  |  | 71.3 µM (inactive) | 38 µM (inactive) | 80.7 µM (inactive) |  | 45.9 µM (inactive) | 30.6 µM (inactive) |
| CCN(CC)c1ccc(C(=C2C=CC(=[N+](CC)CC)C=C2)c2ccccc2)cc1 | 0.0274 µM (active) |  | 0.0225 µM (active) | 0.0379 µM (active) |  | 0.044 µM (active) | 0.0149 µM (active) | 0.0156 µM (active) | 0.0304 µM (active) |
| O=P(c1ccccc1)(c1ccccc1)C1CC=C2CCCCCC2C1 (configuration not stated) |  | 19.2 µM (inactive) | 21.4 µM (inactive) | 36 µM (inactive) | 27.2 µM (inactive) | 40.2 µM (inactive) | 33 µM (inactive) | 24.5 µM (inactive) | 27.4 µM (inactive) |
| O=C1/C(=C/c2ccccc2Cl)COc2ccccc21 | 15.3 µM (inactive) | 11.8 µM (inactive) | 17.5 µM (inactive) | 18.6 µM (inactive) | 19.2 µM (inactive) | 19.3 µM (inactive) | 15.6 µM (inactive) | 18 µM (inactive) | 15 µM (inactive) |
